Values quoted from earlier work, collected in patent publication EP4541846A1, “ENCAPSULANT FILM COMPOSITION, AND ENCAPSULANT FILM COMPRISING SAME” (LG Chem, Ltd., priority 2022, dated 2024).
Structures can show the parent of a compound that is named as a salt.

Conditions: marked by acute toxicity, oral/acute toxicity, percutaneous/skin corrosivity/skin irritation/severe eye damage/eye irritation/dermal hypersensitivity, or the like

SMILES | harmfulness/dangerousness classification in SDS
C=CCOC(=O)/C=C/C(=O)OCC=C [diallyl fumarate] | harmful
C=CCOC(=O)/C=C\C(=O)OCC=C [diallyl maleate] | harmful
C=CCOC(=O)OC(=O)OCC=C [diallyl decarbonate] | harmful
